Measured values reported in patent US12239620B2, “Methods to decrease triglyceride synthesis in the liver” (MediciNova, Inc., priority 2021, dated 2025).

Legend:
Type in all cases: cell-based, human
[1] = test system: CD36; experiment: CD36 mRNA expression in HepG2 cells by qPCR; conditions: 48 hours
Excerpt: FIG. 2 depicts the measurement of CD36 mRNA expression levels from HepG2 cells after treatment with one or more selected from arachidonic acid, T0901317, and MN-001. Y-axis: relative mRNA expression (arbitrary units) compared to a control.
(§1) The effect of MN-001 on the mRNA expression of molecules related to TG metabolism: (1) fatty acid translocase/CD36, which is involved in the uptake of ARA into hepatocytes in the liver, and (2) ABCG1, which plays a role in controlling tissue lipid levels by mediating transfer of cellular cholesterol to HDL, were also investigated by measuring extracted RNA from HepG2 cells and using real-time PCR. To this end, RNA was extracted from HepG2 cells (after treatment with one or more selected from 10 μM arachidonic acid (ARA), 1 μM T1317, and 10 μM MN-001 for 48 hours) and converted to cDNA.
After conversion to cDNA, the CD36 mRNA expression levels were measured by qPCR (FIG. 2). […] Saturated fatty acids (e.g., palmitic acid, stearic acid) and fructose induce adipogenic pathways and promote fat accumulation by increasing CD36 expression and modulating ChREBP, which regulates lipogenesis.

[2] = test system: HepG2 cells; experiment: Intracellular triglyceride level in HepG2 cells after 48 hours incubation; conditions: for increase in TG synthesis compared to vehicle: 10 μM ARA, 1 μM T1317
Description: FIG. 1 depicts the measurement of intracellular triglyceride level in HepG2 cells after 48 hours incubation with one or more selected from arachidonic acid, T0901317, and MN-001. Y-axis: Δ intracellular triglycerides (μg/mg/protein). HepG2 cells (derived from human hepatocellular carcinoma samples) were incubated with one or more selected from 10 μM arachidonic acid (ARA), 1 μM LXR agonist T0901317 (“T1317”), and 10 μM MN-001 for 48 hours. T1317 stimulates LXR-SREBP-1c ChREPB signal, increases triglyceride (TG) synthesis in liver and exacerbates fatty liver. The intracellular triglyceride level was measured after the treatment (FIG. 1).

[3] = test system: ABCG1; experiment: ABCG1 mRNA expression in HepG2 cells by qPCR; conditions: 48 hours, 10 μM MN-001, 10 μM ARA
Excerpt: FIG. 3 depicts the measurement of ABCG1 mRNA expression levels from HepG2 cells after treatment with one or more selected from arachidonic acid, T0901317, and MN-001. Y-axis: relative mRNA expression (arbitrary units) compared to a control.
as §1
In addition, the ABCG1 mRNA expression levels were also measured by qPCR (FIG. 3). ABCG1 is known to be highly expressed in lipid-loaded macrophages and mediates cholesterol efflux to HDL. ABCG1 deficiency leads to profound intracellular cholesterol accumulation in macrophages and hepatocytes.

[4] = 10 μM MN-001 added to 10 μM ARA

Structure (SMILES)	increase of CD36 expression compared to control ([1]; 10 μM ARA) [fold]	increase in TG synthesis compared to vehicle [2] [fold]	upregulation of ABCG1 expression compared to control [3] [fold]	lowering of CD36 expression ([1]; 10 μM MN-001, in the absence of ARA) [%]	lowering of CD36 expression ([1]; 10 μM MN-001, in the presence of ARA (10 μM)) [%]	suppression of CD36 expression compared to ARA alone [1, 4] [fold]	downregulation of CD36 expression compared to control ([1]; 10 μM MN-001 alone) [fold]	suppression of the increase in TG synthesis by T1317 ([2]; 10 μM MN-001 added to 1 μM T1317) [fold]	suppression of the increase in TG synthesis by a combination of T1317 and ARA ([2]; 10 μM MN-001 added to 1 μM T1317 and 10 μM ARA) [fold]	suppression of the increase in TG synthesis by ARA [2, 4] [fold]
CCCCC/C=C\C/C=C\C/C=C\C/C=C\CCCC(=O)O [ARA, arachidonic acid, reference compound]	1.8	15.3	–	–	–	–	–	–	–	–
CCCc1c(SCCCOc2ccc(C(C)=O)c(OCCCC(=O)O)c2CCC)ccc(C(C)=O)c1O [MN-001]	–	–	17	39	43	0.6	0.6	1.7	3.7	3.7
O=S(=O)(c1ccccc1)N(CC(F)(F)F)c1ccc(C(O)(C(F)(F)F)C(F)(F)F)cc1 [T1317, reference compound]	–	3.8	–	–	–	–	–	–	–	–
